The results in this text go back to ChEMBL document CHEMBL1201862, “PubChem BioAssay data set” (2004).

Calls of active or inactive are those of the source.

For assay [1], the target named is T1, Mannose-6-phosphate isomerase (Homo sapiens, UniProt P34949).
T1 sequence (P34949 whole entry): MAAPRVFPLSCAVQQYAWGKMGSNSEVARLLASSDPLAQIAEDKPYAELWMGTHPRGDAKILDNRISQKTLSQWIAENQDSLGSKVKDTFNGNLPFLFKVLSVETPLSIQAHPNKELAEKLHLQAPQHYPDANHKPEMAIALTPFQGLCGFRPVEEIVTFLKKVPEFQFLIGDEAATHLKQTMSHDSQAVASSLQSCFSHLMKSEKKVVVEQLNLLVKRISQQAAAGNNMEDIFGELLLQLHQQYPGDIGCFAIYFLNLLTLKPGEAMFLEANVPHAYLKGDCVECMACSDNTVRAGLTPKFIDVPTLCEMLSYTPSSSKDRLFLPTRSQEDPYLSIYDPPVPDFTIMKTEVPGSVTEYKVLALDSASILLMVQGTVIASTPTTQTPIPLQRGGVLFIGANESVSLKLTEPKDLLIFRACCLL
Description: human PMI inhibitors, high substrate, primary screen, biochemical, fluorescence intensity, high mannose 6-phosphate (AID 1220).

Assay [2] concerns the target Hepatocyte nuclear factor 4-alpha (Homo sapiens, UniProt P41235). Type of assay: functional, cell-based.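 Note: biochemical luminescence-based dose-response counterscreen measuring inhibition of HNF4 dimerization, run alongside a screen for blockers of ABHD5–perilipin-5 interaction; split luciferase complementation of HNF4 fusion proteins in cell lysate measuring dimerization.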
Assay [3] concerns the target Induced myeloid leukemia cell differentiation protein Mcl-1 (Homo sapiens, UniProt Q07820). Type of assay: functional.
Assay [4] is described as follows: StAR promoter reporter inhibition counter-screen, dose response, counter-screen for LRH-1 inverse agonist project, cell-based, luminescence, luciferase reporter (AID 651969). In kind it is functional.
Assay [5] addresses Nuclear receptor subfamily 5 group A member 2 (Homo sapiens, UniProt O00482). In kind it is functional, cell-based.
In a further assay the target is Steroidogenic factor 1 (Homo sapiens, UniProt Q13285). Nature of the assay: Counterscreen for inverse agonists of the liver receptor homolog-1 (LRH-1; NR5A2): Luminescence-based cell-based high throughput dose response assay to identify inverse agonists of the Steroidogenic Factor 1 Nuclear Receptor (SF1; NR5A1). In kind it is functional.
The target in assay [6] is T2, Interleukin-8 (Homo sapiens, UniProt P10145). Nature of the assay: Dose Response confirmation of uHTS small molecule hits for cystic fibrosis induced NFkb Inhibitors in a TNFa-induced IL8 counterscreen. Type of assay: functional. The following applies: read-out: IC50_Mean. In general terms: A counterscreen serves to expose hits that act by an unwanted route or on another target.

Assay [7] deals with T2, Interleukin-8. Description: Dose Response confirmation of uHTS small molecule hits for cystic fibrosis induced NFkb Inhibitors in a PAF-induced IL8 counterscreen. In kind it is functional. The following applies: read-out: IC50_Mean.
Assay [8] concerns the target SWI/SNF-related matrix-associated actin-dependent regulator of chromatin subfamily A member 2 (Homo sapiens, UniProt P51531). Nature of the assay: Luminescence-based cell-based high throughput dose response assay to identify activators of the function of SWI/SNF related, matrix associated, actin dependent regulator of chromatin, subfamily a, member 2 (SMARCA2, BRM). Type of assay: functional.

The target in another assay is Paired box protein Pax-8 (Homo sapiens, UniProt Q06710). Nature of the assay: inhibitors of PAX8-driven TPO luciferase reporter, dose response, RMG-I cells, cherry-pick (AID 687027).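 Note: luciferase reporter driven by Pax8 target thyroperoxidase promoter measured by SteadyGlo luminescence.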 In kind it is functional, cell-based. In general terms: A reporter such as luciferase makes a cellular process visible.
Assay [9] in a line: Counterscreen for activators of the function of SWI/SNF related, matrix associated, actin dependent regulator of chromatin, subfamily a, member 2 (SMARCA2, BRM): Luminescence-based cell-based high throughput dose response assay to identify non-selective compounds using the VP16 reporter assay. Type of assay: functional.
In assay [10] the target is T3, Sentrin-specific protease 8 (Homo sapiens, UniProt Q96LD8).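 Note: luminescence read-out of SENP8 inhibition, dose-response confirmation following an ultra-high-throughput screen.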
T3 sequence (Q96LD8 whole entry): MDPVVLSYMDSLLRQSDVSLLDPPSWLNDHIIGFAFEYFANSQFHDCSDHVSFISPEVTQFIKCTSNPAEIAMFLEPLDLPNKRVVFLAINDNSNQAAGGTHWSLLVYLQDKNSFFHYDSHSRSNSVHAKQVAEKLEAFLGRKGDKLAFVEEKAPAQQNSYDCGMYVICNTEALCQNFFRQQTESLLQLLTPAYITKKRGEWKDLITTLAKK
In kind it is functional.

For the next assay, the target named is T4, Caspase-3 (Homo sapiens, UniProt P42574).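 Note: Dose-response selectivity test against caspase-3 for candidate inhibitors of sentrin-specific proteases (SENPs).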
T4 sequence (P42574 whole entry): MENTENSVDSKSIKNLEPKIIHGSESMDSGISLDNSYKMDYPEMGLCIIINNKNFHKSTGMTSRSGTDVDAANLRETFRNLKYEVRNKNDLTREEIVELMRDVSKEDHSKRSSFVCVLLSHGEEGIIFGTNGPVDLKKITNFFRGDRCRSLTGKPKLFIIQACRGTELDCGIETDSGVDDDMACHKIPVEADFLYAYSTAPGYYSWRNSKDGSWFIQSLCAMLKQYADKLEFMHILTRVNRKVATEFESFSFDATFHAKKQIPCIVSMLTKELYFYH
In kind it is functional.

The target of assay [11] is T5, Sentrin-specific protease 6 (Homo sapiens, UniProt Q9GZR1).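 Note: Luminescence-based dose-response confirmatory assay of SENP6 inhibition, following up an ultra-high-throughput screen.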
T5 sequence (Q9GZR1 whole entry): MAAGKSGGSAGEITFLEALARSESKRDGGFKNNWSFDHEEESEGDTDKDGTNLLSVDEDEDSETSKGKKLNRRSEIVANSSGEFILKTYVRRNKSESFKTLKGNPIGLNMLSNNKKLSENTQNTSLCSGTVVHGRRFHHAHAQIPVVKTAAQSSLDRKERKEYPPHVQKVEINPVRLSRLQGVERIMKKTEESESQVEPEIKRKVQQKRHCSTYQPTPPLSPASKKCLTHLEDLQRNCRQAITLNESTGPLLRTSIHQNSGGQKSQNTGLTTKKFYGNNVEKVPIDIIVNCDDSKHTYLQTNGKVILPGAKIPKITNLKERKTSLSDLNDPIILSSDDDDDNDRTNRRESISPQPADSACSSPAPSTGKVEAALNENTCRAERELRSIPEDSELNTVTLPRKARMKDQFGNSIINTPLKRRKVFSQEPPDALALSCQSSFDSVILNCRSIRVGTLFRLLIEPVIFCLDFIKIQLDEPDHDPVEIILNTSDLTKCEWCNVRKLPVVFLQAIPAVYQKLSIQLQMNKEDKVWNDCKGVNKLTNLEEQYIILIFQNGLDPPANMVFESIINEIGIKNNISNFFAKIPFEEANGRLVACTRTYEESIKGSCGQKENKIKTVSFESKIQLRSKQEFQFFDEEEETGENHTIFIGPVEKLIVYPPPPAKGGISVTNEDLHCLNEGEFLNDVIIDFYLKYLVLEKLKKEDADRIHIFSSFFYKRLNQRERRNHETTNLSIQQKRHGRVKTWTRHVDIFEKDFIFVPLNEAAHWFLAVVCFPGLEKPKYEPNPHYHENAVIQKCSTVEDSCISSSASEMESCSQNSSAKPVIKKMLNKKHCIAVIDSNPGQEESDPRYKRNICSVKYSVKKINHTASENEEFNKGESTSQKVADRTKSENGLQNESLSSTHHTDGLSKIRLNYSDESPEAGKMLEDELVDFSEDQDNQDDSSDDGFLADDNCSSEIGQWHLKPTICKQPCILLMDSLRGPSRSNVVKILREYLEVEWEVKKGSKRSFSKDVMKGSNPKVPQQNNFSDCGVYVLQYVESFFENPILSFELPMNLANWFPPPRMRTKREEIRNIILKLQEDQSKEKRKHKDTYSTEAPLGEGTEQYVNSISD
In kind it is functional.

Assay [12] has as its target T6, Tyrosine-protein phosphatase non-receptor type 22 (Homo sapiens, UniProt Q9Y2R2).
T6 sequence (Q9Y2R2 whole entry): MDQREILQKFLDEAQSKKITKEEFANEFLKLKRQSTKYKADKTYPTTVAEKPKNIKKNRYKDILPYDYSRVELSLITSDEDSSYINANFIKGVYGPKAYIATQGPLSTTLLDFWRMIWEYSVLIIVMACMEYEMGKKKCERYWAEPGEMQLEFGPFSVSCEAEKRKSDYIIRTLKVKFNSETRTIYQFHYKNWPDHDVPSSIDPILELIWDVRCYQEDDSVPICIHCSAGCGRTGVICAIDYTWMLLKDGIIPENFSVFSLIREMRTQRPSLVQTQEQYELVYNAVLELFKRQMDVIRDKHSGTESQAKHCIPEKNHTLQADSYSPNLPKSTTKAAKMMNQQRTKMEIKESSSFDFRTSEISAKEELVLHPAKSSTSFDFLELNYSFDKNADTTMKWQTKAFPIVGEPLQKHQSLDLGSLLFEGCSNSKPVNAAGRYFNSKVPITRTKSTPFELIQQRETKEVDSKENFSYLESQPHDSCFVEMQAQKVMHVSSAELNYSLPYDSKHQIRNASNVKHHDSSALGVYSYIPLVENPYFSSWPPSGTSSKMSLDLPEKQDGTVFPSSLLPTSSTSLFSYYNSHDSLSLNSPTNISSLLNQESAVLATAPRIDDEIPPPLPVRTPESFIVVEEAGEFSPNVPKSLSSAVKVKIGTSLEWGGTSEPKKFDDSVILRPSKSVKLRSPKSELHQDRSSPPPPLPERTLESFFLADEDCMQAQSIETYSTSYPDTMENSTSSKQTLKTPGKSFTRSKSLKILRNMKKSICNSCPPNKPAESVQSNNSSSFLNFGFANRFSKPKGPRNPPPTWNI
Nature of the assay: LYP phosphatase inhibition for selectivity, dose response, selectivity assay for LMPTP inhibitor project, biochemical, fluorescence, LYP catalytic domain (AID 652006). The following applies: read-out: IC50_Mean. Type of assay: functional.

Assay [13] concerns the target T7, Low molecular weight phosphotyrosine protein phosphatase (Homo sapiens, UniProt P24666).
T7 sequence (P24666 whole entry): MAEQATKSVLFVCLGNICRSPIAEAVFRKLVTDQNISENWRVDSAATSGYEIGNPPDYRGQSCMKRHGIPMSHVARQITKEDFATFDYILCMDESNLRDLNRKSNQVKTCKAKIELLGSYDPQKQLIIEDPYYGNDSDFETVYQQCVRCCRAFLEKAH
In kind it is functional. The following applies: read-out: IC50_Mean.

Assay [14] concerns the target T8, Sentrin-specific protease 7 (Homo sapiens, UniProt Q9BQF6).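 Note: Luminescence-based dose-response confirmation of ultra-high-throughput screening hits, measuring inhibition of SENP7.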
T8 sequence (Q9BQF6 whole entry): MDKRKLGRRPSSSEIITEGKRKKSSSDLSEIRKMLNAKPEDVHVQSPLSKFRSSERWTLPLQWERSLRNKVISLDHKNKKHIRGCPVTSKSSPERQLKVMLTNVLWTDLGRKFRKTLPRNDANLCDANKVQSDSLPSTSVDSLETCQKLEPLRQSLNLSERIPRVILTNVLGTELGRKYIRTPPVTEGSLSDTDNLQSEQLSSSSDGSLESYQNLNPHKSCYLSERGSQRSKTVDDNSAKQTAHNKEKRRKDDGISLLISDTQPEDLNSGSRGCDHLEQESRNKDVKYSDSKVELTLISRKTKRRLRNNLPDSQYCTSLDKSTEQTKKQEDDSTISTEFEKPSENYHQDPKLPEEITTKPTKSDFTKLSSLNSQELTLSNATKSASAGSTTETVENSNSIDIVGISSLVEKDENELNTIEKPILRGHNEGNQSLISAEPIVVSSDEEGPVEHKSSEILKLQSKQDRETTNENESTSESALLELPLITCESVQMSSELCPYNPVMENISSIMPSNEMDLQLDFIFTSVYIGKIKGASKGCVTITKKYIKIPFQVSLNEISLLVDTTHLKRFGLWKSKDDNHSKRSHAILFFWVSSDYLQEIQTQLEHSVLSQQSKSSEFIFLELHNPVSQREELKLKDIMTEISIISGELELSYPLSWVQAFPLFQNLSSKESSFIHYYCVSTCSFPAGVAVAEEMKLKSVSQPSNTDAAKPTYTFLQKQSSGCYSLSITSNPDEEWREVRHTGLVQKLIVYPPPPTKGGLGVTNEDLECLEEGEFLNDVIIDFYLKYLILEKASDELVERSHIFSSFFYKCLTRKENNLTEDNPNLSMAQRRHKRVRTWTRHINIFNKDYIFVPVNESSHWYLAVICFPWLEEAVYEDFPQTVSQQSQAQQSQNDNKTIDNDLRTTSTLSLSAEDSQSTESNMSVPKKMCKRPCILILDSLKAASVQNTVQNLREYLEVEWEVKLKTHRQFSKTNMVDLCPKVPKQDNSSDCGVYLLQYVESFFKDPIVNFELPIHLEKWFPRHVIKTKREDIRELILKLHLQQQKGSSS
Type of assay: functional.

For assay [15], the target named is T7, Low molecular weight phosphotyrosine protein phosphatase. In kind it is functional. The following applies: read-out: IC50_Mean. This is another data set of the same source.

T2 sequence (P10145 whole entry): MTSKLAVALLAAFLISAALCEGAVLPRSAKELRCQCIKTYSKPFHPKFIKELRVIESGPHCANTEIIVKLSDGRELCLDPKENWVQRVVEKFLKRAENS
Nuclear receptor subfamily 5 group A member 2, sequence (O00482 whole entry): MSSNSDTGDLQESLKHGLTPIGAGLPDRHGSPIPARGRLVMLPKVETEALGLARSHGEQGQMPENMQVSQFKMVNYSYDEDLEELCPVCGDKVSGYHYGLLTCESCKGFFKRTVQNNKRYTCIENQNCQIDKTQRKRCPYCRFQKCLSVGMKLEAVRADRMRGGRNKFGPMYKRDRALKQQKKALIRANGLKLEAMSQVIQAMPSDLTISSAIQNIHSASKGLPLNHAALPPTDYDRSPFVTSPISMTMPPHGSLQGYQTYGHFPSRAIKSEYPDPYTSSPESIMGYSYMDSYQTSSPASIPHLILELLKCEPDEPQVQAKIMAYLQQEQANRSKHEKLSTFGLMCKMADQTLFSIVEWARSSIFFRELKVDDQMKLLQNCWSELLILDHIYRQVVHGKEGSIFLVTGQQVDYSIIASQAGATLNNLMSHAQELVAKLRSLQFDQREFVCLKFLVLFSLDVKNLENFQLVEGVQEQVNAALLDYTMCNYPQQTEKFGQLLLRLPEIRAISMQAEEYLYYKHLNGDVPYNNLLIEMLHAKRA
Induced myeloid leukemia cell differentiation protein Mcl-1, sequence (Q07820 whole entry): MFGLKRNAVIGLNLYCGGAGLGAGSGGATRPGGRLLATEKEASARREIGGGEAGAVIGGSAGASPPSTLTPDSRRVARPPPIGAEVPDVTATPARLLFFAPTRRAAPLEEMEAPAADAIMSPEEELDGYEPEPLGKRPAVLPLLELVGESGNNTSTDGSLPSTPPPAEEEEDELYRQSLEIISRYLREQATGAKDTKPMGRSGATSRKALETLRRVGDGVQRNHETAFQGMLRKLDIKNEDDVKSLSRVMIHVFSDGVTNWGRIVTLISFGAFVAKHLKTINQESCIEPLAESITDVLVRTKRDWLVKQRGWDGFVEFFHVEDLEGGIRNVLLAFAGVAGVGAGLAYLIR
SWI/SNF-related matrix-associated actin-dependent regulator of chromatin subfamily A member 2, sequence (P51531 whole entry): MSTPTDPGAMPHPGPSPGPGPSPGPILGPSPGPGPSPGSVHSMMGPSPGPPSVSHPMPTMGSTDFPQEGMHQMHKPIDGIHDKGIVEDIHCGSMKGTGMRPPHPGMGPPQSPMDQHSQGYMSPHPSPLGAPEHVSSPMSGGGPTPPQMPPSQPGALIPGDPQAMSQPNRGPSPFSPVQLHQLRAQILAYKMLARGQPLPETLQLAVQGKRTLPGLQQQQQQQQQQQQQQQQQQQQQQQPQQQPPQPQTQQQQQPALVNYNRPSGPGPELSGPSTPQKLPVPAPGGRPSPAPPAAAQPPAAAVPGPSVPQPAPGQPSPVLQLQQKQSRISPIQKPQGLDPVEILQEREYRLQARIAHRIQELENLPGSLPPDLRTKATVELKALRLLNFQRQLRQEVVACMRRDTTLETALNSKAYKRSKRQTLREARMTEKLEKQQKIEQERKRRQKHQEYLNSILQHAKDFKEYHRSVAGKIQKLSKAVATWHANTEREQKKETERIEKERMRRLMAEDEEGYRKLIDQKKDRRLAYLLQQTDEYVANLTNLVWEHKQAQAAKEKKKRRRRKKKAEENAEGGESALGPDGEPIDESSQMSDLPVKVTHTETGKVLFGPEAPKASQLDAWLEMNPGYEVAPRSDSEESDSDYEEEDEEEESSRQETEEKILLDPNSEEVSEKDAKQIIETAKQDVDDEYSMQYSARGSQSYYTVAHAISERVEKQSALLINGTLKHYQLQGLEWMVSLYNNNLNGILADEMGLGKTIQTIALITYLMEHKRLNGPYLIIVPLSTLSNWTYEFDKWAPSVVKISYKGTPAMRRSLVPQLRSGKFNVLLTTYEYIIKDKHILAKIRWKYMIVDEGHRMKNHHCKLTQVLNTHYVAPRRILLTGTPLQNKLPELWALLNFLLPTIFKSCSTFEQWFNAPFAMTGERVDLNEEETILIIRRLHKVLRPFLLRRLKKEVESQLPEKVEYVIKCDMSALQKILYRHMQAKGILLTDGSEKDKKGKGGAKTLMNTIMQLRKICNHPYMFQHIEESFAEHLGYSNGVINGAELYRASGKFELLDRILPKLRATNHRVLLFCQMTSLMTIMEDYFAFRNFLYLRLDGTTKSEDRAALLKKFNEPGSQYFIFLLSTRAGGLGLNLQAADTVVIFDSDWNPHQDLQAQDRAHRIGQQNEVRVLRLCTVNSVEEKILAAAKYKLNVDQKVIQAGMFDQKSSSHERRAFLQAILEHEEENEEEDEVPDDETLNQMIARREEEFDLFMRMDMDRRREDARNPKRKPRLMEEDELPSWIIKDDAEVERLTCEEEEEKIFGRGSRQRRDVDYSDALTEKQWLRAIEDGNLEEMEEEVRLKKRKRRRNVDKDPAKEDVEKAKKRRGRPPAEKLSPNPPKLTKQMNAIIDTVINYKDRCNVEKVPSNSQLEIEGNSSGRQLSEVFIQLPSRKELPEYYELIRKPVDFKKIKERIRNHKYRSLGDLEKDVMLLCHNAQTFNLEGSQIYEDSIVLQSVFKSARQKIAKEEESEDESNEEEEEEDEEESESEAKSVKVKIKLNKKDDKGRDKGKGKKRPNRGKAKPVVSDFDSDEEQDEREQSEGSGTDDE
Hepatocyte nuclear factor 4-alpha, sequence (P41235 whole entry, the tested form may be a part): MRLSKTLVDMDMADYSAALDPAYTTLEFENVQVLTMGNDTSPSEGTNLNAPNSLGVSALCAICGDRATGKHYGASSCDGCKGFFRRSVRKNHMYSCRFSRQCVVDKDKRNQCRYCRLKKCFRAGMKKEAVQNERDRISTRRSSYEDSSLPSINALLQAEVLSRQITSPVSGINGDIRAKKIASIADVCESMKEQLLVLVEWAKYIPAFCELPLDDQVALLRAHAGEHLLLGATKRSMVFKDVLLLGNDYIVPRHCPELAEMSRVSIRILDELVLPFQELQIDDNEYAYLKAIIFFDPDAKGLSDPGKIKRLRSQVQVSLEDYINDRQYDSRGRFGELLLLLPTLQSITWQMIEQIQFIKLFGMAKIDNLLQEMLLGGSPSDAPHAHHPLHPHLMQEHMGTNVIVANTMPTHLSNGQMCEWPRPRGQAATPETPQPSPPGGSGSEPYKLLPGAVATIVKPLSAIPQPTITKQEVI
Paired box protein Pax-8, sequence (Q06710 whole entry): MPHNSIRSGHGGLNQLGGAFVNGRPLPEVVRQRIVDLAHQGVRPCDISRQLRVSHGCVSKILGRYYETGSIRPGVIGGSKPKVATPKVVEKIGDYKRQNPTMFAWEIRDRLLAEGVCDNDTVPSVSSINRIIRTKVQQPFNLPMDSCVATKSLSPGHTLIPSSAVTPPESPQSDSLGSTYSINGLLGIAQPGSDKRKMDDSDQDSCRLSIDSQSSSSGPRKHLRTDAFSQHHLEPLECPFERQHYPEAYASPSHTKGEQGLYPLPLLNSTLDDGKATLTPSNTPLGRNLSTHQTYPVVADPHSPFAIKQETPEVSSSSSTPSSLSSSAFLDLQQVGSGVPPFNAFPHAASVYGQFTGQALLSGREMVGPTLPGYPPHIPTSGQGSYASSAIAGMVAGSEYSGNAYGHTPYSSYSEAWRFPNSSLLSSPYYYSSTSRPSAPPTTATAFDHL
Steroidogenic factor 1, sequence (Q13285 whole entry): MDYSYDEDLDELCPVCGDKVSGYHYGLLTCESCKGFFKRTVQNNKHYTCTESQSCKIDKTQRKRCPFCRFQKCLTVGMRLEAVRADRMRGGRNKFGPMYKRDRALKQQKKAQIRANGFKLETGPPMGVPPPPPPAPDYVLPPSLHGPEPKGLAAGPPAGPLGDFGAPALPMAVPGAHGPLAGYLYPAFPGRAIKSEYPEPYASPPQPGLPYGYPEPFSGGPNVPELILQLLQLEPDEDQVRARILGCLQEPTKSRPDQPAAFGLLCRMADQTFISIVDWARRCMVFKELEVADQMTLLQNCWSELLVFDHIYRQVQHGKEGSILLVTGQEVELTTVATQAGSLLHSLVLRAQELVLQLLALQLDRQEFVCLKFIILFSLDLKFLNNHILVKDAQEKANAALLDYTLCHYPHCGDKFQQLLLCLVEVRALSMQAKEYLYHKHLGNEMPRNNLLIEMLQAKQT

Consider `CCOC(=O)c1c(C)oc2c1c(CN1CCN(CCO)CC1)c(O)c1ccccc12`, for which the IC50 in [1] was > 50 µM (not active); in assay [2] it was 2.31 µM (active); in [3] it was 1.13 µM (active).
On to `CCc1cc(=O)oc2c(C)c(OCC(=O)NCCN3CCOCC3)ccc12`, for which the values for the IC50 (in assay [4]; in assay [5]; on Steroidogenic factor 1) were 35.9 µM (inactive), 35.9 µM (inactive) and 9.97 µM (active), respectively.
For orientation: EC50 means the concentration at which the effect is half-maximal. The AC50 is the midpoint of the concentration-response curve, whichever way the signal moves. As to `C=C1C(=O)[C@]23C[C@H]1CC[C@H]2[C@]1(C)[C@@H](OC(C)=O)CC[C@@](C)(C(=O)O)[C@H]1C[C@@H]3O`, the IC50 was > 79 µM (inactive) at Interleukin-8 [6] and 0.293 µM (active) at Interleukin-8 [7]. Moreover, the EC50 in [8] and in assay [9] was > 91.3 µM (inactive) throughout. The AC50 at Paired box protein Pax-8 was 4.07 µM (active).
On to `O=C(/C=C/c1ccc(Br)cc1)NC(=O)c1ccccc1O`, for which the IC50 in assay [10] was 26.9 µM (active); at Caspase-3 it was > 100 µM (inactive); in [11], 15.2 µM (active); in [12] it was 43.6 µM (inactive); in [13], 9.98 µM (active); in [14] it was 8.1 µM (active). Besides, the IC50 in [15] was 22.2 µM (inactive).
